“Also recorded” adds a separate entry of the source. Like-named read-outs stand apart in the source and are kept apart here.
Experiments:
TBK1 [1] = target: T1, TBK1 (Homo sapiens (Human), UniProt Q9UHD2); test: In vitro TBK1 degradation assay, Panc02.13 cells (compounds 3-33), immunoblot; type: cell-based; settings: for DC50: read-out: DC50 (concentration at which 50% degradation is observed)
Method: (§1) In vitro degradation assay protocol for compounds 3-33: Panc02.13 cells were purchased from ATCC and cultured in RPMI-1640 (Gibco), supplemented with 15% FBS (ATCC) and 10 Units/mL human recombinant insulin (Gibco). PROTAC treatments were carried out in 12-well plates for 16 h. TLR3 agonist Poly I:C (Invivogen; tlr1-pic) was added for the final 3 h. Cells were harvested, and lysed in RIPA buffer (50 mM Tris pH8, 150 mM NaCl, 1% Tx-100, 0.1% SDS, 0.5% Sodium Deoxycholate) supplemented with protease and phosphatase inhibitors. Lysates were clarified at 16,000 g for 10 minutes, and supernatants were separated by SDS-PAGE. Immunoblotting was performed using standard protocols. The antibodies used were TBK1 (Cell Signaling#3504), pIRF3 (abcam#ab76493), and GAPDH (Cell Signaling#5174).

TBK1 [2] = target: T1, TBK1; test: TBK1 binding affinity (Kd)
[3] = target: Von Hippel-Lindau (VHL) E3 ligase (Homo sapiens (Human), UniProt P40337); test: VHL binding, FP assay; settings: affinity of the VHL ligand component with side chain R2
pIRF3 = test: Inhibition of TBK1 downstream marker pIRF3 in cells; type: cell-based
Method: as §1

[4] = system: KRAS mutant cell lines H23, A549 and H1792, and KRAS wild type cell line H2110; test: Proliferation of KRAS mutant and wild type cell lines; type: cell-based; settings: 72 hour treatment
IKKε [5] = target: T2, IKKε (Homo sapiens (Human), UniProt Q14164); test: IKKε binding affinity (Kd)
IKKε [6] = target: T2, IKKε; test: IKKε degradation in cells; type: cell-based
TBK1 [7] = target: T1, TBK1; test: TBK1 degradation in KRAS mutant and wild type cell lines; type: cell-based; settings: 72 hour treatment; H23, A549, H1792 (KRAS mutant), H2110 (KRAS wild type)
[8] = TBK1 degradation, Panc02.13 cells, 16 h, mean of ≥ 2 determinations

T2 sequence (Q14164 whole entry): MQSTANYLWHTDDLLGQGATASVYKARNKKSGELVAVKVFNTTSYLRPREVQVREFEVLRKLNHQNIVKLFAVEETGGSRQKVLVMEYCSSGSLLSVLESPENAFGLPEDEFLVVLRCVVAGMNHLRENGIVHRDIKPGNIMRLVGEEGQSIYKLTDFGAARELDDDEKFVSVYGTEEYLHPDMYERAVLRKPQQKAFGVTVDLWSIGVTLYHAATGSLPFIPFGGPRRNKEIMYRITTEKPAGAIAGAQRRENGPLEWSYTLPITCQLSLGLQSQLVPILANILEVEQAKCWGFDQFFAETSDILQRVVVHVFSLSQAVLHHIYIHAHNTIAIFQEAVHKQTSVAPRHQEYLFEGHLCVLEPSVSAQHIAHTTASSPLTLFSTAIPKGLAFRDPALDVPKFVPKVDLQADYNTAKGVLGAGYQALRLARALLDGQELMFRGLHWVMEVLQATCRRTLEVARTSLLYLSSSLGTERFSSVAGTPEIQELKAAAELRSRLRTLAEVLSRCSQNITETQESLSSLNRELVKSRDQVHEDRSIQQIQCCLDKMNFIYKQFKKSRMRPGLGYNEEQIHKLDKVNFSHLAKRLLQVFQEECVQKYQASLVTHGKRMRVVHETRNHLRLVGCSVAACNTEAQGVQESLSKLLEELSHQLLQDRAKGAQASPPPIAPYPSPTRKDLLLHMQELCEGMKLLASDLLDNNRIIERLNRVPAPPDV
Von Hippel-Lindau (VHL) E3 ligase, sequence (P40337 whole entry, looked up): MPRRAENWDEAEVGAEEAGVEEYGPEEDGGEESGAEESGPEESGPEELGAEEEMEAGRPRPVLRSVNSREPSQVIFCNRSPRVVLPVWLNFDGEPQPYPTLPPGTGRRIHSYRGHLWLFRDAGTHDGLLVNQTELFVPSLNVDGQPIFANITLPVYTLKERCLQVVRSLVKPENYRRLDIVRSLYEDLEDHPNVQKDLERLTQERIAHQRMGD
Von Hippel-Lindau (VHL) E3 ligase, sequence (Q15370 whole entry partner, looked up): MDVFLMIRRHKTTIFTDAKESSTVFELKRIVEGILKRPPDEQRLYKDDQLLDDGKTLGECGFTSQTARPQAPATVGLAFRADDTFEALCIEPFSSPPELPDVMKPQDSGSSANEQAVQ
Von Hippel-Lindau (VHL) E3 ligase, sequence (Q15369 whole entry partner, looked up): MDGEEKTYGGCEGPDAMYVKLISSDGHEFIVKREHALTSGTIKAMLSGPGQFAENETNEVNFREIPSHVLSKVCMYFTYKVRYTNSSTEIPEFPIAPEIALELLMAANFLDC
T1 sequence (Q9UHD2 whole entry): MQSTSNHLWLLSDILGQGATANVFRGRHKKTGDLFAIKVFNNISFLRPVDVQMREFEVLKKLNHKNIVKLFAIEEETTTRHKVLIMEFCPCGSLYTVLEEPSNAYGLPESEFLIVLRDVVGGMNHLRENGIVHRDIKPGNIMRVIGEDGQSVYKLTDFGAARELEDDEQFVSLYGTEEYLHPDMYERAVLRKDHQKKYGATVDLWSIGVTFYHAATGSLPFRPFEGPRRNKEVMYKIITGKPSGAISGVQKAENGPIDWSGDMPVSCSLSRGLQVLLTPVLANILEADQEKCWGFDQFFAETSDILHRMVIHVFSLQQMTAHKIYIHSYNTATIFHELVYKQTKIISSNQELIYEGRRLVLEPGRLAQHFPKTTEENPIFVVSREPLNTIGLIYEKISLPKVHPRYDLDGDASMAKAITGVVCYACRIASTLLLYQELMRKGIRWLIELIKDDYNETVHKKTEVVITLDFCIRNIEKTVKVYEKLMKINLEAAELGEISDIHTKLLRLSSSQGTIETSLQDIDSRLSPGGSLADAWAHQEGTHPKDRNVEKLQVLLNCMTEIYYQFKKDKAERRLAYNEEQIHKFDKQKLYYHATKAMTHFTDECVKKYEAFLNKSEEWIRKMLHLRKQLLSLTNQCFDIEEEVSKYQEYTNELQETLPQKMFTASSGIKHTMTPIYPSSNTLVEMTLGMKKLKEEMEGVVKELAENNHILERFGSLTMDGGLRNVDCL

| SMILES | DC50 (TBK1 [1]; [8]) [nM] | Kd (TBK1 [2]) [nM] | IC50 [3] [nM] | Dmax (maximal degradation observed) (TBK1 [1]; [8]) [%] | also measured |
| --- | --- | --- | --- | --- | --- |
| Cc1ncsc1-c1ccc(CNC(=O)[C@@H]2C[C@@H](O)CN2C(=O)[C@@H](NC(=O)COCCCOCCCCOCCCOc2ccc(Nc3ncc(Br)c(NCCCN(C)C(=O)C4CCC4)n3)cc2)C(C)(C)C)cc1 [Compound 11, (2S,4R)-1-((S)-18-(4-((5-Bromo-4-((3-(N-methylcyclobutanecarboxamido)-propyl)amino)pyrimidin-2-yl)amino)phenoxy)-2-(tert-butyl)-4-oxo-6,10,15-trioxa-3-azaoctadecan-1-oyl)-4-hydroxy-N-(4-(4-methylthiazol-5-yl)benzyl)pyrrolidine-2-carboxamide] | 12 | 4.6 ± 1.1 | 800 |  | Dmax (TBK1 [1]; TBK1 degradation, Panc02.13 cells, 16 h, mean of ≥ 2 determinations, read-out: Dmax (maximal degradation observed)): 96%; TBK1 degradation with excess VHL ligand 2 added (TBK1 [1]; excess VHL ligand 2 as competitor): abrogated TBK1's degradation; TBK1 degradation (in words) (TBK1 [1]; listed as PROTAC 11): Maximal efficacy; also recorded: effects degradation of TBK1; TBK1 degradation after pre-treatment with proteasome inhibitor carfilzomib (TBK1 [1]; pre-treatment with carfilzomib, listed as PROTAC 11): markedly reduced the extent of TBK1 degradation; also recorded: abrogated; intracellular TBK1 binding indicated by inhibition of pIRF3 (pIRF3): competent intracellular TBK1 binding; effect on proliferation of KRAS mutant versus wild type cells [4]: no differential effect on the proliferation; Kd (IKKε [5]): 70 nM; IKKε degradation (IKKε [6]): negligible degradation; degradation selectivity TBK1 over IKKε (IKKε [6]): selectively degrades TBK1 over IKKε; TBK1 degradation in KRAS mutant and wild type cells (TBK1 [7]): near complete degradation of TBK1 |
| Cc1ncsc1-c1ccc(CNC(=O)[C@@H]2C[C@@H](O)CN2C(=O)[C@@H](NC(=O)COCCCOCCCCOCCCOc2ccc(Nc3ncc(C4CCC4)c(NCCCN(C)C(=O)C4CCC4)n3)cc2)C(C)(C)C)cc1 [Compound 22] | 544 | 1040 ± 165 |  | 70 | Kd (TBK1 [2]; rounded value): 1000 nM |
| CC[C@H](NC(=O)COCCCOCCCCOCCCOc1ccc(Nc2ncc(Br)c(NCCCN(C)C(=O)C3CCC3)n2)cc1)C(=O)N1C[C@H](O)C[C@H]1C(=O)NCc1ccc(-c2scnc2C)cc1 [Compound 31] | 864 |  | 70400 | 71 | Dmax (maximal degradation observed) (TBK1 [1]; TBK1 degradation, Panc02.13 cells, 16 h, mean of ≥ 2 determinations, listed as PROTAC 31): > 70% |
| CCC[C@H](NC(=O)COCCCOCCCCOCCCOc1ccc(Nc2ncc(Br)c(NCCCN(C)C(=O)C3CCC3)n2)cc1)C(=O)N1C[C@H](O)C[C@H]1C(=O)NCc1ccc(-c2scnc2C)cc1 [Compound 32] | 288 |  | 6200 | 75 |  |
| Cc1ncsc1-c1ccc(CNC(=O)[C@@H]2C[C@@H](O)CN2C(=O)[C@@H](NC(=O)COCCCOCCCCOCCCOc2ccc(Nc3ncc(Br)c(NCCCN(C)C(=O)C4CCC4)n3)cc2)C(C)C)cc1 [Compound 33] | 44 |  | 1450 | 88 |  |

Source: patent publication US10946017B2, “Tank-binding kinase-1 PROTACs and associated methods of use” (Arvinas Operations, Inc., priority 2015, dated 2021)
